This is an account of results in patent EP0705258B1, “AZOLYL-CYCLIC AMINE DERIVATIVES WITH IMMUNOMODULATORY ACTIVITY” (Knoll AG, priority 1993, dated 1995).

The test system of assay [1] is tumour necrosis factor-α (TNF-α). Nature of the assay: Mouse Tumour Necrosis Factor Test (Test B), mouse endotoxin shock model, serum TNF-α by ELISA. It is filed as in vivo, BALB/c mice. The conditions noted are these: Mus musculus; minimum effective oral dose giving significant reduction in serum TNF-α of ≥35%; dosed 2 h before LPS i.p.; ≤ = active at dose given but not tested at lower doses; read-out: MTNF:MED. The source says:
Preferred compounds of the present invention are active in an in-vivo test which determines the ability of the compounds to inhibit the release of tumour necrosis factor-α (TNF-α) in a mouse endotoxin shock model (Test B). This model is similar to that described by Zuckerman and Bendele (1989), Infection and Immunity 57 (10): p3009-3013.
Each compound of formula I was combined with a carrier of a solution of 1.5% v/v sorbitan esters under the trade name Tween 80 and 0.25% v/v cellosize in sterile water (100 µl) and was administered orally to a group of four BALB/c mice. The concentration of compound was such as to provide dosages selected from 100, 30, 10, 3, 1, 0.1 and 0.03 mg/kg. Two hours after such oral administration, lipopolysaccharide (LPS) (E. coli 0127:B8) (100 µg) in sterile water (0.2 ml) was administered intraperitoneally to the test mice.
A control group of eight BALB/c mice was treated in a similar manner as the test group except that no test compound was included with the carrier.
One hour after LPS administration the mice were killed and blood was collected by cardiac puncture. The blood was incubated at 20°C for 2 hours and the serum was separated from the clotted blood following centrifugation. Serum tumour necrosis factor-α (TNF-α) levels were assayed by an enzyme-linked immunosorbent assay (ELISA) and the concentration of TNF-α in each of the drug-treated groups was compared with the control group by one-way analysis of variance followed by a multiple t-test.
The ELISA was carried out by coating a 96-well vinyl assay plate (Costar) overnight at 4°C with 50 µl per well of 2 µg/ml hamster anti-mouse TNF monoclonal antibody in 0.1M sodium hydrogen carbonate buffer at pH 8.2. After washing the plate with phosphate buffered saline (PBS) containing 0.05% v/v sorbitan esters under the trade name Tween 20 (wash buffer), a blocking/dilution buffer (10% sheep serum in PBS containing 0.1% v/v sorbitan esters under the trade name Tween 20 (200 µl)) was aliquoted to each well and incubated at 37°C for 0.5 hours. After aspirating the blocking buffer, the serum samples and pure TNF (as a standard) diluted in blocking/dilution buffer, were added to the wells and incubated at 37°C for 2 hours. After washing with the wash buffer, a polyclonal rabbit anti-mouse TNF-α antibody in blocking/dilution buffer (100 µl of a 1 in 10,000 dilution) was added and incubated for a further 1.5 hours at 37°C. After further washes, anti-rabbit IgG peroxidase conjugate (100 µl of a 1 in 4000 dilution) was added and incubated at 37°C for 0.5 hours. After further washing, the substrate solution (100 µl per well of 0.1 mg/ml 3,3', 5,5'-tetramethylbenzidine dihydrochloride in 0.1M phosphate citrate buffer, pH 5.0, to which 2 µl of 30% hydrogen peroxide per 10 ml was added just before use) was added and the colour allowed to develop. The reaction was stopped by the addition of 1M sulphuric acid (25 µl) and the optical density read in a multichannel spectrophotometer at 450 nm. The mean TNF-α concentration was determined by comparison with the standard curve and the mean TNF-α concentration for each group compared with that produced by the control group. Drug treatments which cause a statistically significant reduction in TNF-α concentration of ≥35% at a single dose at 100 mg/kg or less were considered active.
(In general: An ELISA detects its analyte on a solid surface through an enzyme-linked reagent.)

For assay [2], the system named is Zymosan Stimulated Macrophages. Nature of the assay: Inhibition of Arachidonic Acid Release from Zymosan Stimulated Macrophages (Test D). The assay is classed as cell-based, MF1 mice. The conditions noted are these: Mus musculus, Macrophage, tested at 100, 50, 20, 10, 5 and 1 µM. The method, then:
Female MF1 mice (weighing 20 to 25 g) were killed using a rising concentration of CO2. The mice were laid on their backs and the abdomens wiped with 70% alcohol. The skin was pulled back, exposing the peritoneal wall. Medium A (5 ml) (see below) was injected into the peritoneal cavity of each mouse followed by approximately 1 ml of air using a 20 ml syringe and a 21G x 40 mm needle in order to form a suspension of macrophage cells. The medium and cells were then removed using a 19G x 40 mm needle. The resulting suspension was returned to a sterile beaker kept on ice. The extracts from all the mice were pooled and this pooled cell suspension was counted using a Coulter counter and adjusted to a final cell count of 1 - 1.3 x 10^6 cells/ml prior to labelling with [^3H]-arachidonic acid. Typically five mice provided sufficient cells for each multiwell plate. Sufficient [^3H]arachidonic acid in ethanol to give a final concentration of 1.6 µCi/ml (equivalent to 40 µCi/plate) was blown to dryness under nitrogen. The arachidonic acid was then resuspended in 1 or 2 ml of the cell suspension which was then mixed with the remainder of the cell suspension in a centrifuge bottle. The labelled cell suspension was then plated out into sterile plastic 96 flat-bottomed well plates (250 µl per well) and incubated overnight at 37°C in a moist atmosphere of 5% CO2, 95% air. The following day, non-adherent cells were removed by washing 3 times with sterile phosphate buffered saline (PBS). The adherent peritoneal macrophages were then cultured for a further 24 hours in the presence or absence of drugs, in medium B (see below) at 37° in a 5% CO2 atmosphere in order to measure the effects of drugs on the spontaneous release of arachidonic acid in the absence of stimulus. After this incubation, supernatants were removed to give media 1 and stored in sealed multi-well plates at 4°C prior to scintillation counting. Drugs which potentiated spontaneous release of arachidonic acid (125% of controls) were deemed to be toxic at the concentration at which this phenomenon occurred. The supernatants were replaced by fresh medium C containing fresh drug and a stimulus. Three drugs were tested at six concentrations (100, 50, 20, 10, 5 and 1 µM) in replicates of four on each plate. The other wells contained controls consisting of a positive control (e.g. dexamethasone), medium (B) only and medium C only. Incubation was then continued for a further 5 hours, whereupon the supernatants were collected to give media 2 and the adherent cells washed with PBS. The cells were then lysed with 100 µl of 0.1% TRITON® X100 in a 0.1% solution of bovine serum albumin in 0.9% saline and mechanically disrupted to give cell lysates. These supernatants (media 2) and cell lysates (Cells) were also stored in sealed multi-well plates at 4°C prior to scintillation counting. 200 µl aliquots of media, or 100 µl aliquots of cells were counted using 2 ml of OPTIPHASE "HIGH SAFE" (Trademark of LKB) as scintillant. […] The value for the arachidonic acid release in the absence of stimulus (spontaneous, cpm of media 2) from cells which had been exposed to neither stimulus nor drug was subtracted from all equivalent values (cpm media 2, stimulated with or without drug) to give the net stimulated release. The percentage inhibition of arachidonic acid release caused by a drug may then be calculated using the following equation. % Inhibition = 100 -(net stimulated release in presence of drug x 100)/(net stimulated release in absence of drug) [formula] […] The zymosan stimulant was prepared as follows:- zymosan (200mg) (supplied by Sigma) was added to PBS (20ml). The mixture was boiled for 30 minutes and the volume restored to 20ml with water. The zymosan was harvested by centrifugation at 500Xg for 5 minutes, washed twice by resuspension in PBS (10ml) and centrifugation. After the final separation, the zymosan was resuspended in 20ml PBS and stored as lml aliquots at -20°C. […]

As usually defined, the IC50 is the midpoint of a concentration-inhibition curve.

As to `c1ccc(CCCN2CCCC(CCn3ccnc3)C2)cc1` (stereo not drawn) [Example 99, 3-[2-(Imidazol-l-yl)ethyl]-1-(3-phenylpropyl)piperidine], the minimal effective dose in assay [1] turned out to be 100 mg/kg. Further, in assay [2], the IC50 amounted to 58 µM.
As for `c1ccc(CCCN2CCCCC2CCn2ccnc2)cc1` (stereo not drawn) [Example 100, 2-[2-(Imidazol-1-yl)ethyl]-1-(3-phenylpropyl)piperidine], the minimal effective dose in assay [1] stood at 100 mg/kg. For the same molecule, the IC50 in assay [2] was 27 µM.
`c1ccc(CCCN2CCCC(Cn3ccnc3)C2)cc1` (stereo not drawn) [Example 101, 3-Imidazol-1-ylmethyl-1-(3-phenylpropyl)piperidine]: the minimal effective dose in assay [1] is 100 mg/kg. The IC50 in assay [2] came out at 18 µM.
